Source: patent publication US12617779B2, “Self degradation-type CDK9 inhibitor prodrug and liposome encapsulating same” (Sumitomo Pharma Co., Ltd., priority 2021, dated 2026)

Assay: Evaluation of conversion rate to active form in buffer solution (Experimental Example 1)
Type: physicochemical
Settings: for Production rate of Alvocidib / Residual rate: 37° C., 25 umol/L in buffer solution; for Stability in buffer solution at pH 5: pH 5, 37° C., up to 2 or 3 hours; for Conversion to Alvocidib at pH 7.4: pH 7.4, 37° C., up to 3 hours
Summary of the method: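 Conversion to Alvocidib was followed by HPLC over 3 hours at 37° C, with test compounds at 25 umol/L in 50 mM citrate or phosphate buffers spanning pH 5.0–7.4.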

## CN1CC[C@H](c2c(OC(=O)N(CCC(F)(F)F)CC3CCCCN3)cc(O)c3c(=O)cc(-c4ccccc4Cl)oc23)[C@H](O)C1 (stereo partly drawn) [Example 13, 2-(2-chlorophenyl)-5-hydroxy-8-[(3S,4R)-3-hydroxy-1-methylpiperidin-4-yl]-4-oxo-4H-1-benzopyran-7-yl [(piperidin-2-yl)methyl](3,3,3-trifluoropropyl)carbamate]
pH5.0, 0 hr
  Production rate of Alvocidib: 2.1%
  Residual rate: 82.1%
  Stability in buffer solution at pH 5: stable
  Conversion to Alvocidib at pH 7.4: rapidly converted to Alvocidib
pH5.0, 0.5 hr
  Production rate of Alvocidib: 3.9%
  Residual rate: 81.7%
pH5.0, 1 hr
  Production rate of Alvocidib: 4.9%
  Residual rate: 80.3%
pH5.0, 2 hr
  Production rate of Alvocidib: 6.3%
  Residual rate: 78.0%
pH5.0, 3 hr
  Production rate of Alvocidib: 8.0%
  Residual rate: 76.1%
pH5.5, 0 hr
  Production rate of Alvocidib: 2.5%
  Residual rate: 82.7%
pH5.5, 0.5 hr
  Production rate of Alvocidib: 5.5%
  Residual rate: 79.2%
pH5.5, 1 hr
  Production rate of Alvocidib: 8.6%
  Residual rate: 74.6%
pH5.5, 2 hr
  Production rate of Alvocidib: 13.9%
  Residual rate: 67.1%
pH5.5, 3 hr
  Production rate of Alvocidib: 17.7%
  Residual rate: 61.8%
pH6.0, 0 hr
  Production rate of Alvocidib: 3.3%
  Residual rate: 81.3%
pH6.0, 0.5 hr
  Production rate of Alvocidib: 11.6%
  Residual rate: 69.8%
pH6.0, 1 hr
  Production rate of Alvocidib: 21.6%
  Residual rate: 56.6%
pH6.0, 2 hr
  Production rate of Alvocidib: 33.3%
  Residual rate: 40.2%
pH6.0, 3 hr
  Production rate of Alvocidib: 42.5%
  Residual rate: 28.3%
pH6.5, 0 hr
  Production rate of Alvocidib: 3.7%
  Residual rate: 81.4%
pH6.5, 0.5 hr
  Production rate of Alvocidib: 27.5%
  Residual rate: 47.7%
pH6.5, 1 hr
  Production rate of Alvocidib: 47.7%
  Residual rate: 22.2%
pH6.5, 2 hr
  Production rate of Alvocidib: 56.7%
  Residual rate: 9.9%
pH6.5, 3 hr
  Production rate of Alvocidib: 65.5%
  Residual rate: 2.8%
pH7.0, 0 hr
  Production rate of Alvocidib: 5.4%
  Residual rate: 78.3%
pH7.0, 0.5 hr
  Production rate of Alvocidib: 49.3%
  Residual rate: 18.7%
pH7.0, 1 hr
  Production rate of Alvocidib: 65.9%
  Residual rate: 2.7%
pH7.0, 2 hr
  Production rate of Alvocidib: 65.1%
  Residual rate: 0.4%
pH7.0, 3 hr
  Production rate of Alvocidib: 69.9%
  Residual rate: 0.0%
pH7.4, 0 hr
  Production rate of Alvocidib: 9.2%
  Residual rate: 68.5%
pH7.4, 0.5 hr
  Production rate of Alvocidib: 65.8%
  Residual rate: 2.2%
pH7.4, 1 hr
  Production rate of Alvocidib: 65.5%
  Residual rate: 0.2%
pH7.4, 2 hr
  Production rate of Alvocidib: 68.6%
  Residual rate: 0.0%
pH7.4, 3 hr
  Production rate of Alvocidib: 66.1%
  Residual rate: 0.0%

## CN1CC[C@H](c2c(OC(=O)N(C)C[C@H]3CCCCN3)cc(O)c3c(=O)cc(-c4ccccc4Cl)oc23)[C@H](O)C1 [Example 4, 2-(2-chlorophenyl)-5-hydroxy-8-[(3S,4R)-3-hydroxy-1-methylpiperidin-4-yl]-4-oxo-4H-1-benzopyran-7-yl methyl{[(2R)-piperidin-2-yl]methyl}carbamate]
pH5.0, 0 hr
  Production rate of Alvocidib: 0.5%
  Residual rate: 99.3%
  Stability in buffer solution at pH 5: stable
  Conversion to Alvocidib at pH 7.4: rapidly converted to Alvocidib
pH5.0, 0.5 hr
  Production rate of Alvocidib: 0.8%
  Residual rate: 98.5%
pH5.0, 1 hr
  Production rate of Alvocidib: 1.1%
  Residual rate: 98.0%
pH5.0, 2 hr
  Production rate of Alvocidib: 1.7%
  Residual rate: 96.8%
pH5.0, 3 hr
  Production rate of Alvocidib: 2.3%
  Residual rate: 95.6%
pH5.5, 0 hr
  Production rate of Alvocidib: 0.4%
  Residual rate: 99.2%
pH5.5, 0.5 hr
  Production rate of Alvocidib: 1.5%
  Residual rate: 97.1%
pH5.5, 1 hr
  Production rate of Alvocidib: 2.2%
  Residual rate: 95.5%
pH5.5, 2 hr
  Production rate of Alvocidib: 4.0%
  Residual rate: 91.4%
pH5.5, 3 hr
  Production rate of Alvocidib: 5.5%
  Residual rate: 87.9%
pH6.0, 0 hr
  Production rate of Alvocidib: 0.4%
  Residual rate: 99.3%
pH6.0, 0.5 hr
  Production rate of Alvocidib: 3.7%
  Residual rate: 91.9%
pH6.0, 1 hr
  Production rate of Alvocidib: 6.4%
  Residual rate: 85.6%
pH6.0, 2 hr
  Production rate of Alvocidib: 12.0%
  Residual rate: 72.4%
pH6.0, 3 hr
  Production rate of Alvocidib: 16.6%
  Residual rate: 61.7%
pH6.5, 0 hr
  Production rate of Alvocidib: 0.5%
  Residual rate: 99.3%
pH6.5, 0.5 hr
  Production rate of Alvocidib: 9.0%
  Residual rate: 79.5%
pH6.5, 1 hr
  Production rate of Alvocidib: 15.1%
  Residual rate: 65.1%
pH6.5, 2 hr
  Production rate of Alvocidib: 26.1%
  Residual rate: 39.7%
pH6.5, 3 hr
  Production rate of Alvocidib: 32.7%
  Residual rate: 24.9%
pH7.0, 0 hr
  Production rate of Alvocidib: 0.6%
  Residual rate: 98.8%
pH7.0, 0.5 hr
  Production rate of Alvocidib: 21.3%
  Residual rate: 51.3%
pH7.0, 1 hr
  Production rate of Alvocidib: 31.6%
  Residual rate: 27.7%
pH7.0, 2 hr
  Production rate of Alvocidib: 41.1%
  Residual rate: 0.0%
pH7.0, 3 hr
  Production rate of Alvocidib: 43.3%
  Residual rate: 0.0%
pH7.4, 0 hr
  Production rate of Alvocidib: 0.8%
  Residual rate: 98.4%
pH7.4, 0.5 hr
  Production rate of Alvocidib: 34.8%
  Residual rate: 21.5%
pH7.4, 1 hr
  Production rate of Alvocidib: 42.0%
  Residual rate: 0.0%
pH7.4, 2 hr
  Production rate of Alvocidib: 44.6%
  Residual rate: 0.0%
pH7.4, 3 hr
  Production rate of Alvocidib: 44.6%
  Residual rate: 0.0%
